Results: article PMC4536076, “Chemical Library Screening and Structure-Function Relationship Studies Identify Bisacodyl as a Potent and Selective Cytotoxic Agent Towards Quiescent Human Glioblastoma Tumor Stem-Like Cells” (PLoS ONE, 2015)
Where a name gives a salt, the structure may show the parent alone.

Each compound was assayed on quiescent TG1 GSCs. Conditions: not given.
Protocol: (§1) Proliferating or quiescent TG1 GSCs were seeded (30 000 and 40 000 viable cells/well, respectively) into 96-well opaque bottom plates (Greiner) with the Biomek FX robot (Beckman Coulter). Each compound from the Prestwick Library was then added (final concentration: 50 μM; 1% DMSO). Each molecule was tested once. Negative control wells (12/96 per assay plate) contained cells treated with 1% DMSO (final concentration) and positive control wells (4/96 per assay plate) contained cells treated with the fungal toxin ophiobolin A (Sigma Aldrich) at 50 μM with 1% DMSO. […] Luminescence in each well was measured with the Victor3 plate reader (PerkinElmer).
(§2) Relative ATP levels in each well were determined by calculating the percentage of luminescent signal in the well with respect to the average signal measured in negative control wells.
(§3) Primary screen hits were further tested in duplicate, at two concentrations (50 and 5 μM) on proliferating and quiescent TG1 GSCs. Cell plating and treatment with compounds were as for the primary screen. Hit selection/confirmation criteria for quiescent cells were as described above.
With C[C@@H]1[C@H](O)[C@@H](C)/C=C/C=C/CC/C=C/C=C/C=C/C=C/C(O[C@H]2O[C@H](C)[C@@H](O)[C@H](N)[C@@H]2O)CC2O[C@](O)(CC(O)C(O)CCC(O)CC(O)CC(O)CC(=O)O[C@H]1C)CC(O)C2C(=O)O (some centres unmarked) [Nystatine] the “Activity on quiescent TG1 GSCs (hit compounds reducing ATP levels)” value was “yes”.

Same assay, conditions: primary screen, 50 μM, 24 h
In the case of CCCCC(CC)CNC(=N)NC(=N)NCCCCCCNC(=N)NC(=N)NCC(CC)CCCC (centres unmarked) [Alexidine dihydrochloride], the “Activity on quiescent TG1 GSCs (hit compounds reducing ATP levels)” value is reported as “yes”. In the case of CCCCc1oc2ccccc2c1C(=O)c1cc(I)c(OCCN(CC)CC)c(I)c1 [Amiodarone hydrochloride], the “Activity on quiescent TG1 GSCs (hit compounds reducing ATP levels)” value is reported as “yes”. For CCCCCC[C@H]1C(=O)O[C@H](C)[C@H](NC(=O)c2cccc(NC=O)c2O)C(=O)O[C@@H](C)[C@@H]1OC(=O)CC(C)C [Antimycin A], the “Activity on quiescent TG1 GSCs (hit compounds reducing ATP levels)” value was “yes”. CCCCCCC[N+](CC)(CC)CCCCc1ccc(Cl)cc1.Cc1ccc(S(=O)(=O)[O-])cc1 [Clofilium tosylate] was tested, and the “Activity on quiescent TG1 GSCs (hit compounds reducing ATP levels)” value was “yes”. In the case of O=C(O)c1cc(-c2ccc(F)cc2F)ccc1O [Diflunisal], the “Activity on quiescent TG1 GSCs (hit compounds reducing ATP levels)” value is reported as “yes”. C[C@]12CC[C@H](O)C[C@H]1CC[C@@H]1[C@@H]2CC[C@]2(C)[C@@H](C3=CC(=O)OC3)CC[C@]12O [Digitoxigenin] was tested, and the “Activity on quiescent TG1 GSCs (hit compounds reducing ATP levels)” value was “yes”. For COc1cc2nc(N3CCN(C(=O)C4COc5ccccc5O4)CC3)nc(N)c2cc1OC (centres unmarked) [Doxazosin mesylate], the “Activity on quiescent TG1 GSCs (hit compounds reducing ATP levels)” value was “yes”. O=c1c2ccccc2[se]n1-c1ccccc1 [Ebselen] was tested, and the “Activity on quiescent TG1 GSCs (hit compounds reducing ATP levels)” value was “yes”. For Clc1ccc(COC(Cn2ccnc2)c2ccc(Cl)cc2Cl)cc1 (centres unmarked) [Econazole nitrate], the “Activity on quiescent TG1 GSCs (hit compounds reducing ATP levels)” value was “yes”. In the case of CCOc1ccc(Cc2nccc3cc(OCC)c(OCC)cc23)cc1OCC [Ethaverine hydrochloride], the “Activity on quiescent TG1 GSCs (hit compounds reducing ATP levels)” value is reported as “yes”. For CCc1cc(C(N)=S)ccn1 [Ethionamide], the “Activity on quiescent TG1 CSCs (hit compounds increasing ATP levels)” value was “yes”. With O=C(O)c1ccccc1Nc1cccc(C(F)(F)F)c1 [Flufenamic acid] the “Activity on quiescent TG1 GSCs (hit compounds reducing ATP levels)” value was “yes”. Fc1ccc(C(c2ccc(F)cc2)N2CCN(C/C=C/c3ccccc3)CC2)cc1 [Flunarizine dihydrochloride] was tested, and the “Activity on quiescent TG1 GSCs (hit compounds reducing ATP levels)” value was “yes”. With CC(C)C(=O)Nc1ccc([N+](=O)[O-])c(C(F)(F)F)c1 [Flutamide] the “Activity on quiescent TG1 GSCs (hit compounds reducing ATP levels)” value was “yes”. In the case of CCCCN(CCCC)CCC(O)c1cc2c(Cl)cc(Cl)cc2c2cc(C(F)(F)F)ccc12 (centres unmarked) [Halofantrine hydrochloride], the “Activity on quiescent TG1 GSCs (hit compounds reducing ATP levels)” value is reported as “yes”. CC[C@H](c1ccc(O)cc1)[C@@H](CC)c1ccc(O)cc1 [Hexestrol] was tested, and the “Activity on quiescent TG1 GSCs (hit compounds reducing ATP levels)” value was “yes”. In the case of c1ccc2c(c1)OCC(C1=NCCN1)O2 (centres unmarked) [Idazoxan hydrochloride], the “Activity on quiescent TG1 CSCs (hit compounds increasing ATP levels)” value is reported as “yes”. With CCCCCN(CCCCC)C(=O)C(CCC(=O)[O-])NC(=O)c1ccc(Cl)c(Cl)c1.[Na+] (centres unmarked) [Lorglumide sodium salt] the “Activity on quiescent TG1 CSCs (hit compounds increasing ATP levels)” value was “yes”. CC[C@H](C)C(=O)O[C@H]1C[C@@H](C)C=C2C=C[C@H](C)[C@H](CC[C@@H]3C[C@@H](O)CC(=O)O3)[C@H]21 [Lovastatin] was tested, and the “Activity on quiescent TG1 CSCs (hit compounds increasing ATP levels)” value was “yes”. With CC[C@@]1([C@H]2O[C@H]([C@H]3O[C@@](O)(CO)[C@H](C)C[C@@H]3C)C[C@H]2C)CC[C@H]([C@@]2(C)CC[C@]3(C[C@H](O)[C@@H](C)[C@@H]([C@H](C)[C@H](OC)[C@@H](C)C(=O)[O-])O3)O2)O1.[Na+] [Monensin sodium salt] the “Activity on quiescent TG1 GSCs (hit compounds reducing ATP levels)” value was “yes”. With O=C(Nc1ccc([N+](=O)[O-])cc1Cl)c1cc(Cl)ccc1O [Niclosamide] the “Activity on quiescent TG1 GSCs (hit compounds reducing ATP levels)” value was “yes”. For C[C@@H]1O[C@@H](O[C@@H]2C=C3CC[C@@H]4[C@H](CC[C@]5(C)[C@@H](c6ccc(=O)oc6)CC[C@]45O)[C@@]3(C)CC2)[C@H](O)[C@H](O)[C@H]1O [Proscillaridin A], the “Activity on quiescent TG1 GSCs (hit compounds reducing ATP levels)” value was “yes”. In the case of Cc1cc(/C=C/c2ccc3cc(N(C)C)ccc3[n+]2C)c(C)n1-c1ccccc1.Cc1cc(/C=C/c2ccc3cc(N(C)C)ccc3[n+]2C)c(C)n1-c1ccccc1.O=C([O-])c1cc2ccccc2c(Cc2c(O)c(C(=O)[O-])cc3ccccc23)c1O [Pyvinium pamoate], the “Activity on quiescent TG1 GSCs (hit compounds reducing ATP levels)” value is reported as “yes”. With COC(=O)[C@H]1[C@H]2C[C@@H]3c4[nH]c5cc(OC)ccc5c4CCN3C[C@H]2C[C@@H](OC(=O)/C=C/c2cc(OC)c(OC)c(OC)c2)[C@@H]1OC [Rescinnamin] the “Activity on quiescent TG1 GSCs (hit compounds reducing ATP levels)” value was “yes”. For CO[C@H]1/C=C/O[C@@]2(C)Oc3c(C)c(O)c4c(O)c(c(/C=N/N5CCN(C)CC5)c(O)c4c3C2=O)NC(=O)/C(C)=C\C=C\[C@H](C)[C@H](O)[C@@H](C)[C@@H](O)[C@@H](C)[C@H](OC(C)=O)[C@@H]1C [Rifampicin], the “Activity on quiescent TG1 CSCs (hit compounds increasing ATP levels)” value was “yes”. In the case of Br.C[N+]1([O-])[C@@H]2CC(OC(=O)[C@H](CO)c3ccccc3)C[C@H]1[C@@H]1O[C@@H]12 (some centres unmarked) [Scopolamin-N-oxide hydrobromide], the “Activity on quiescent TG1 CSCs (hit compounds increasing ATP levels)” value is reported as “yes”. For CCC(C)(C)C(=O)O[C@H]1C[C@@H](C)C=C2C=C[C@H](C)[C@H](CC[C@@H]3C[C@@H](O)CC(=O)O3)[C@H]21 [Simvastatin], the “Activity on quiescent TG1 GSCs (hit compounds reducing ATP levels)” value was “yes”. With C[C@]12CC[C@H]3[C@@H](CC[C@]4(O)C[C@@H](O)CC[C@]34C=O)[C@@]1(O)CC[C@@H]2C1=CC(=O)OC1 [Strophanthidin] the “Activity on quiescent TG1 GSCs (hit compounds reducing ATP levels)” value was “yes”. C[C@@H]1O[C@@H](O[C@H]2C[C@@H](O)[C@]3(CO)[C@H]4[C@H](O)C[C@]5(C)[C@@H](C6=CC(=O)OC6)CC[C@]5(O)[C@@H]4CC[C@]3(O)C2)[C@H](O)[C@H](O)[C@H]1O.O.O.O.O.O.O.O.O [Strophantine octahydrate] was tested, and the “Activity on quiescent TG1 GSCs (hit compounds reducing ATP levels)” value was “yes”. For Cc1c(Cl)cccc1Nc1ccccc1C(=O)O [Tolfenamic acid], the “Activity on quiescent TG1 GSCs (hit compounds reducing ATP levels)” value was “yes”. In the case of NC[C@H]1CC[C@H](C(=O)O)CC1 [Tranexamic acid], the “Activity on quiescent TG1 CSCs (hit compounds increasing ATP levels)” value is reported as “yes”. With CN1C(=O)OC(C)(C)C1=O [Trimethadione] the “Activity on quiescent TG1 CSCs (hit compounds increasing ATP levels)” value was “yes”. In the case of (S)-(-)-Atenolol, the “Activity on quiescent TG1 CSCs (hit compounds increasing ATP levels)” value is reported as “yes”. Meclocycline sulfosalicylate was tested, and the “Activity on quiescent TG1 GSCs (hit compounds reducing ATP levels)” value was “yes”.

What follows are compounds tested on proliferating TG1 GSCs. Conditions: primary screen, 50 μM, 24 h.
Protocol: as §1, §2, §3
CCCCC(CC)CNC(=N)NC(=N)NCCCCCCNC(=N)NC(=N)NCC(CC)CCCC (centres unmarked) [Alexidine dihydrochloride] was tested, and the “Activity on proliferating TG1 GSCs (hit compounds reducing ATP levels)” value was “yes”. CN(C)c1nc(N(C)C)nc(N(C)C)n1 [Altretamine] was tested, and the “Activity on proliferating TG1 CSCs (hit compounds increasing ATP levels)” value was “yes”. With CCCCc1oc2ccccc2c1C(=O)c1cc(I)c(OCCN(CC)CC)c(I)c1 [Amiodarone hydrochloride] the “Activity on proliferating TG1 GSCs (hit compounds reducing ATP levels)” value was “yes”. For [H]/N=C(\N/C(=N/[H])NCCCCCCNC(=N)NC(=N)Nc1ccc(Cl)cc1)Nc1ccc(Cl)cc1 [Chlorhexidine], the “Activity on proliferating TG1 GSCs (hit compounds reducing ATP levels)” value was “yes”. Oc1c(I)cc(Cl)c2cccnc12 [Clioquinol] was tested, and the “Activity on proliferating TG1 GSCs (hit compounds reducing ATP levels)” value was “yes”. In the case of Nc1ncnc2c1ncn2[C@@H]1O[C@@H]2COP(=O)(O)O[C@H]2[C@H]1O [Cyclic AMP], the “Activity on proliferating TG1 CSCs (hit compounds increasing ATP levels)” value is reported as “yes”. C[C@H]1O[C@@H](O[C@H]2[C@@H](O)C[C@H](O[C@H]3[C@@H](O)C[C@H](O[C@H]4CC[C@@]5(C)[C@H](CC[C@@H]6[C@@H]5C[C@@H](O)[C@]5(C)[C@@H](C7=CC(=O)OC7)CC[C@]65O)C4)O[C@@H]3C)O[C@@H]2C)C[C@H](O)[C@@H]1O [Digoxin] was tested, and the “Activity on proliferating TG1 GSCs (hit compounds reducing ATP levels)” value was “yes”. With CN(C)[C@@H]1C(O)=C(C(N)=O)C(=O)[C@@]2(O)C(O)=C3C(=O)c4c(O)ccc(Cl)c4[C@@H](O)[C@H]3C[C@@H]12.Cl [Dimeclocycline hydrochloride] the “Activity on proliferating TG1 GSCs (hit compounds reducing ATP levels)” value was “yes”. In the case of CC(C(=O)O)c1ccc(N2Cc3ccccc3C2=O)cc1 (centres unmarked) [Indoprofen], the “Activity on proliferating TG1 GSCs (hit compounds reducing ATP levels)” value is reported as “yes”. With Cc1cccc(C)c1NC(=O)CN1CCN(CCCC(c2ccc(F)cc2)c2ccc(F)cc2)CC1 [Lidoflazine] the “Activity on proliferating TG1 GSCs (hit compounds reducing ATP levels)” value was “yes”. For CN1CCCC(CC2c3ccccc3Sc3ccccc32)C1 (centres unmarked) [Metixene hydrochloride], the “Activity on proliferating TG1 GSCs (hit compounds reducing ATP levels)” value was “yes”. With CNCCC=C1c2ccccc2C=Cc2ccccc21 [Norcyclobenzaprine] the “Activity on proliferating TG1 GSCs (hit compounds reducing ATP levels)” value was “yes”. For OCCN1CCN(CCCN2c3ccccc3Sc3ccc(Cl)cc32)CC1 [Perphenazine], the “Activity on proliferating TG1 GSCs (hit compounds reducing ATP levels)” value was “yes”. With CC(COc1ccccc1)N(CCCl)Cc1ccccc1 (centres unmarked) [Phenoxybenzamine hydrochloride] the “Activity on proliferating TG1 CSCs (hit compounds increasing ATP levels)” value was “yes”. In the case of CCN1CCN(C(=O)N[C@@H](C(=O)N[C@@H]2C(=O)N3[C@@H]2SC(C)(C)[C@@H]3C(=O)O)c2ccccc2)C(=O)C1=O [Piperacillin sodium salt], the “Activity on proliferating TG1 GSCs (hit compounds reducing ATP levels)” value is reported as “yes”. For COc1cc(/C=C/C(=O)N2CCC=CC2=O)cc(OC)c1OC [Piperlongumine], the “Activity on proliferating TG1 GSCs (hit compounds reducing ATP levels)” value was “yes”. CCC1(c2ccccc2)C(=O)NCNC1=O [Primidone] was tested, and the “Activity on proliferating TG1 CSCs (hit compounds increasing ATP levels)” value was “yes”. CC(C)(Sc1cc(C(C)(C)C)c(O)c(C(C)(C)C)c1)Sc1cc(C(C)(C)C)c(O)c(C(C)(C)C)c1 [Probucol] was tested, and the “Activity on proliferating TG1 CSCs (hit compounds increasing ATP levels)” value was “yes”. CNCCCC1c2ccccc2C=Cc2ccccc21 [Protriptyline hydrochloride] was tested, and the “Activity on proliferating TG1 GSCs (hit compounds reducing ATP levels)” value was “yes”. With CSc1ccc2c(c1)N(CCC1CCCCN1C)c1ccccc1S2 (centres unmarked) [Thioridazine hydrochloride] the “Activity on proliferating TG1 GSCs (hit compounds reducing ATP levels)” value was “yes”. C[C@H](CCC(=O)O)[C@H]1CC[C@H]2[C@@H]3[C@@H](O)C[C@@H]4C[C@H](O)CC[C@]4(C)[C@H]3CC[C@]12C [Urosiol] was tested, and the “Activity on proliferating TG1 CSCs (hit compounds increasing ATP levels)” value was “yes”.
